Experimental data from patent US7371534B2, “Sensitive intracellular calcium assay” (Discoverx Corporation, priority 2004, dated 2008).

Test system: Muscarinic receptor
Assay: Intracellular calcium assay for the effect of carbachol (Fluo-4 AM, FLIPR peak fluorescence)
Assay type: cell-based
Settings: for change in signal based on the value at 10 nM: 10 nM to 1000 nM
Protocol: Assay is run in a standard 384-well microtiter plate with a clear bottom. Cells are seeded at a density of 30,000 cells/well, and allowed to grow overnight in standard tissue culture medium, under standard tissue culture conditions.
The next day, tissue culture supernatant is removed, and 50 μl of Calcium Reagent (Molecular Devices, Sunnyvale Calif.) is added to the wells. Plate is incubated for 1 hour at 37EC in a standard tissue culture incubator. This step loads the dye into the cells.
After the 1 hour incubation, the plate is transferred to the Molecular Device FLIPR instrument, which measures the cellular fluorescence (excitation at 488 nm /emission 515 nm filter), in one second intervals. The dye is hydrolyzed in the cell by esterases and becomes fluorescent. The instrument adds 25 microliters of carbachol (agonist for cellular calcium response) 10 seconds after the initiation of the read, and the increase in free cellular calcium resulting from carbachol stimulation is measured as an increase in cellular fluorescent signal.
The reagent: 3 μM Fluo-4 AM dye (Molecular Probes, Eugene Oreg.), 150 nM antibody in HEPES buffer (pH 7.4) containing 1% fetal bovine serum (Sigma), 0.1% Pluronic F127 (BASF) and 0.5 mM probenecid (Sigma) is added.
Instrument software identifies peak fluorescence, which is directly correlated to cellular calcium levels.

Question: How did the “change in signal based on the value at 10 nM” value (commercial reagent) turn out when `C[N+](C)(C)CCOC(N)=O` [Carbachol] was run?
Answer: 21%

Question: And the “change in signal based on the value at 10 nM” value (present reagents)?
Answer: 161%

Question: And the “Calcium Assay, RFU (peak fluorescence)” value (carbachol 10 nM, Commercial Reagents (prior art, Quencher-Ab conjugate -))?
Answer: 9410 RFU

Question: And the “Calcium Assay, RFU (peak fluorescence)” value (carbachol 10 nM, DiscoveRx Reagents (present reagents, Quencher-Ab conjugate +))?
Answer: 2589 RFU

Question: What about the “Calcium Assay, RFU (peak fluorescence)” value (carbachol 1000 nM, Commercial Reagents (prior art, Quencher-Ab conjugate -)) of the same compound?
Answer: 11348 RFU

Question: And the “Calcium Assay, RFU (peak fluorescence)” value (carbachol 1000 nM, DiscoveRx Reagents (present reagents, Quencher-Ab conjugate +))?
Answer: 6767 RFU

Question: And the “difference in signal in going from 10 nM to 1000 nM” value (commercial reagent)?
Answer: 1938 RFU

Question: And the “change in signal in going from 10 nM to 1000 nM” value (present reagents)?
Answer: 4178 RFU
